Assay [1] concerns the target T1, Recombinant Human ENPP-1 Protein (purified in-house) (Homo sapiens (Human), UniProt P22413). Briefly: ENPP1 Assay (ATP), Example 2. It counts as biochemical. The method, then: Assay Buffer: 1 mM CaCl2, 0.2 mM ZnCl2, 50 mM Tris, pH 9.0. Substrate: 100 μM Adenosine 5′-triphosphate disodium salt hydrate (Promega: V703A)—Assay Conc.: 10 μM. Enzyme: 1 ng/μL Recombinant Human ENPP-1 Protein (purified in-house)—Assay Conc.: 5 ng/well of DMSO in 96-well white assay plates. Cell Titer Glo (Promega, cat #G7572).
A ten point serial dilution of drugs was prepared in 10× in assay buffer with the final assay concentrations starting at 10 μM, 3 μM, 1 μM, 0.3 μM . . . 0 μM. A dilution of DMSO was included as a control. The assay plate was set up as follows with each well in duplicate: 75 μL assay buffer+10 μL ENPP1 inhibitor or DMSO Dilutions+10 μL Substrate+5 μL Enzyme (5 ng). Both the enzyme and substrate were added to opposite sides of the well to ensure that there was no interaction until all wells had both components. The plate was then centrifuged gently for 10 seconds, followed by incubation at RT for 20 minutes. To detect levels of ATP, Cell Titer Glo was added 1:1 to each well and incubated for 10 minutes. The reaction was quantified by measuring luminescence using the Envision Plate Reader.

Assay [2] deals with T1, Recombinant Human ENPP-1 Protein (purified in-house). Briefly: ENPP1 Assay (TMP), Example 2. The class given is biochemical. The method, then:
Enzyme: 1 ng/μL Recombinant Human ENPP-1 Protein (purified in-house)—Assay Conc.: 5 ng/well of DMSO in 96-well clear assay plates.
A ten point serial dilution of drugs was prepared in 10× in assay buffer with the final assay concentrations starting at 10 μM, 3 μM, 1 μM, 0.3 μM . . . 0 μM. A dilution of DMSO was included as a control. The assay plate was set up as follows with each well in duplicate: 75 μL assay buffer+10 μL ENPP1 inhibitor or DMSO Dilutions+10 μL Substrate+5 μL Enzyme (5 ng). Both the enzyme and substrate were added to opposite sides of the well to ensure that there was no interaction until all wells had both components. The plate was then centrifuged gently for 10 seconds, followed by an incubation at 37° C. for 45 minutes. The reaction was quantified by measuring absorbance at 405 nm using the Envision Plate Reader.

The mark [3] stands for this setting: FIG. 5B, ATP substrate, read-out: IC50.
Setting [4] is: FIG. 5A, TMP substrate, read-out: IC50.
The mark [5] stands for this setting: Table 5, ATP substrate, read-out: ENPP1 (IC50 μM) ATP.
[6] abbreviates: Table 5, TMP substrate, read-out: ENPP1 (IC50 μM) TMP.

Structures can show the parent of a compound that is named as a salt. Where only a bound is given, the exact number is not on record here.

T1 sequence (P22413 whole entry, looked up): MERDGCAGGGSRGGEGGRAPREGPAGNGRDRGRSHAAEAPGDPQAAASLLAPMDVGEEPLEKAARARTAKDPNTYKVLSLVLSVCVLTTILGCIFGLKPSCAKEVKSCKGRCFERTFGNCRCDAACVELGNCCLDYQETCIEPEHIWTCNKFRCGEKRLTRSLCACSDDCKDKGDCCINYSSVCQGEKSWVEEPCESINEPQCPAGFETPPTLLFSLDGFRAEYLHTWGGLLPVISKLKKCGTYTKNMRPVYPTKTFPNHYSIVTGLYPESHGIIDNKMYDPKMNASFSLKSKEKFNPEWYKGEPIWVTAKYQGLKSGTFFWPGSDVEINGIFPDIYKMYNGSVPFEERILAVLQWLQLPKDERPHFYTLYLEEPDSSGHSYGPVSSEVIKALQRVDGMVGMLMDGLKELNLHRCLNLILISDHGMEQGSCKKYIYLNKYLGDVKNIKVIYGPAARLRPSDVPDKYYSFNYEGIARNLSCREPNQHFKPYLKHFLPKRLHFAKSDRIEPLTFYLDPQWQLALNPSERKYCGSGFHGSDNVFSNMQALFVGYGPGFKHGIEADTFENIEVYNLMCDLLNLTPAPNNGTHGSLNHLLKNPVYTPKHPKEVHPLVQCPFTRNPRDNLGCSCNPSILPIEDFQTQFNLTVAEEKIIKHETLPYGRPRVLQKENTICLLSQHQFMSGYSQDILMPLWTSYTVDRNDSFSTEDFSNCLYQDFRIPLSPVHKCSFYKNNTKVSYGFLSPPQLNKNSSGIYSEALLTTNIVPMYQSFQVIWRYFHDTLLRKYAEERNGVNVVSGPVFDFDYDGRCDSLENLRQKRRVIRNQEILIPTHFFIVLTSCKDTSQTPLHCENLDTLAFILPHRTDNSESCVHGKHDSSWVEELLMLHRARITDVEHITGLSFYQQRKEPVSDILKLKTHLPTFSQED

With `COc1ccc(NC(=O)CSc2nc3c(C)c(C#N)ncc3[nH]2)cc1OP(=O)(O)O` [Compound 107, Sodium 5-(2-((6-cyano-7-methyl-3H-imidazo[4,5-c]pyridin-2-yl)thio)acetamido)-2-methoxyphenyl phosphate], the IC50 worked out at 0.116 µM in assay [1] (setting [3]); 0.116 µM in assay [1] (Table 5, ATP substrate, phosphate, read-out: ENPP1 (IC50 μM) ATP); 0.232 µM in assay [2] (setting [4]); 0.231 µM in assay [2] (Table 5, TMP substrate, phosphate, read-out: ENPP1 (IC50 μM) TMP). For `COc1ccc(NC(=O)CSc2nc3c(C)c(C#N)ncc3[nH]2)cc1OCCO` [Compound 109, 2-((6-cyano-7-methyl-3H-imidazo[4,5-c]pyridin-2-yl)thio)-N-(3-(2-hydroxyethoxy)-4-methoxyphenyl)acetamide], the IC50 in assay [1] (setting [5]) came to 3.26 µM; in assay [2] (setting [6]), 3.61 µM. Taken in the same sequence, the figures for `COc1ccc(NC(=O)CSc2nc3c(C)c(C#N)ncc3[nH]2)cc1N[C@H]1CC[C@H](N)CC1` [Compound 114, N-(3-(((1r,4r)-4-aminocyclohexyl)amino)-4-methoxyphenyl)-2-((6-cyano-7-methyl-3H-imidazo[4,5-c]pyridin-2-yl)thio)acetamide hydrogen chloride] were above 50 µM and above 50 µM. Consider `COc1ccc(NC(=O)CSc2nc3c(C)c(C#N)ncc3[nH]2)cc1O[C@H]1CC[C@H](N)CC1` [Compound 113, N-(3-(((1r,4r)-4-aminocyclohexyl)oxy)-4-methoxyphenyl)-2-((6-cyano-7-methyl-3H-imidazo[4,5-c]pyridin-2-yl)thio)acetamide Hydrochloride], for which the IC50 in assay [2] (setting [6]) worked out at 22.2 µM. On the same count and under the same terms, the same measure for `COc1ccc(NC(=O)CSc2nc3c(C)c(C#N)ncc3[nH]2)cc1OCC1CCN(C)CC1` [Compound 111, 2-((6-cyano-7-methyl-3H-imidazo[4,5-c]pyridin-2-yl)thio)-N-(4-methoxy-3-((1-methylpiperidin-4-yl)methoxy)phenyl)acetamide hydrochloride]: 22.3 µM.

As to `COc1ccc(NC(=O)CSc2nc3c(C)c(C#N)ncc3[nH]2)cc1N1CCC(O)CC1` [Compound 112, 2-((6-cyano-7-methyl-3H-imidazo[4,5-c]pyridin-2-yl)thio)-N-(3-(4-hydroxypiperidin-1-yl)-4-methoxyphenyl)acetamide hydrochloride], the IC50 in assay [1] (setting [5]) and in assay [2] (setting [6]) was above 50 µM throughout. `COc1ccc(NC(=O)CSc2nc3c(C)c(C#N)ncc3[nH]2)cc1S(C)(=O)=O` [Compound 103, 2-((6-cyano-7-methyl-3H-imidazo[4,5-c]pyridin-2-yl)thio)-N-(4-methoxy-3-(methylsulfonyl)phenyl)acetamide]: in assay [2] (setting [6]), the IC50 is above 50 µM.

For `Cc1c(C#N)ncc2[nH]c(SCC(=O)Nc3ccc(F)c(OCCO)c3)nc12` [Compound 110, 2-((6-cyano-7-methyl-3H-imidazo[4,5-c]pyridin-2-yl)thio)-N-(4-fluoro-3-(2-hydroxyethoxy)phenyl)acetamide], the IC50 in assay [2] (setting [6]) is above 50 µM.

In the case of `Cc1c(C#N)ncc2[nH]c(SCC(=O)Nc3ccc(F)c(S(N)(=O)=O)c3)nc12` [Compound 104, 2-((6-cyano-7-methyl-3H-imidazo[4,5-c]pyridin-2-yl)thio)-N-(4-fluoro-3-sulfamoylphenyl)acetamide], the IC50 in assay [2] (setting [6]) was found to be 2.85 µM. Same read-out and setting: with `COc1nc(NC(=O)CSc2nc3c(C)c(C#N)ncc3[nH]2)ccc1O` [Compound 96, 2-((6-cyano-7-methyl-3H-imidazo[4,5-c]pyridin-2-yl)thio)-N-(5-hydroxy-6-methoxypyridin-2-yl)acetamide] the figure was above 50 µM. Turning to `COc1ccc(NC(=O)c2cnc(CSc3nc4c(C)c(C#N)ncc4[nH]3)s2)cc1O` [Compound 115, sodium 5-(2-(((6-cyano-7-methyl-3H-imidazo[4,5-c]pyridin-2-yl)thio)methyl)thiazole-5-carboxamido)-2-methoxyphenolate], the IC50 in assay [1] (setting [3]) turned out to be 0.191 µM; in assay [1] (setting [5]) it was 0.196 µM; in assay [2] (setting [4]) it was 1.61 µM; in assay [2] (setting [6]), 1.61 µM.

(Values after patent US11142524B2, “Substituted-3H-imidazo[4,5-c]pyridine and 1H-pyrrolo[2,3-c]pyridine series of novel Ectonucleotide Pyrophosphatase/Phosphodiesterase-1 (ENPP1) and stimulator for interferon genes (STING) modulators as cancer immunotherapeutics” (Stingray Therapeutics, Inc., priority 2018, dated 2021).)
